In one data set the target is CYP2C19 (Homo sapiens, UniProt P33261). As to the kind of experiment: Mechanism-based (time- and concentration-dependent) inactivation of CYP2C19 in human liver microsomes. The class given is in vitro ADME. Particulars: CYP2C19-mediated [S]-mephenytoin 4′-hydroxylation. Here is the method: (§1) The microsomes (1 mg/mL) were pre-incubated with various concentrations of aschantin in 50 mM potassium phosphate buffer (pH 7.4) in the presence of NADPH. Aliquots (10 µL) of the incubated mixtures were withdrawn at 5, 10, 15, and 20 min after incubation commenced and added to other tubes containing the CYP substrates (2 µM amodiaquine for CYP2C8, 10 µM diclofenac for CYP2C9, 100 µM [S]-mephenytoin for CYP2C19, or 2 µM midazolam for CYP3A4), 1 mM NADPH, 50 mM potassium phosphate buffer (pH 7.4), and 10 mM MgCl2, in 90 µL reaction mixtures. […] Aliquots (5 µL) of the diluted supernatants were analyzed by LC-MS/MS, as described above.

In the next data set the target is CYP3A4 (Homo sapiens, UniProt P08684). Put plainly: Mechanism-based (time- and concentration-dependent) inactivation of CYP3A4 in human liver microsomes. The class given is in vitro ADME. Particulars: CYP3A4-mediated midazolam 1′-hydroxylation. Here is the method: as §1
Background: Microsomes from liver hold many membrane-bound enzymes, among them those of drug oxidation.

CYP3A4, sequence (P08684 2-503): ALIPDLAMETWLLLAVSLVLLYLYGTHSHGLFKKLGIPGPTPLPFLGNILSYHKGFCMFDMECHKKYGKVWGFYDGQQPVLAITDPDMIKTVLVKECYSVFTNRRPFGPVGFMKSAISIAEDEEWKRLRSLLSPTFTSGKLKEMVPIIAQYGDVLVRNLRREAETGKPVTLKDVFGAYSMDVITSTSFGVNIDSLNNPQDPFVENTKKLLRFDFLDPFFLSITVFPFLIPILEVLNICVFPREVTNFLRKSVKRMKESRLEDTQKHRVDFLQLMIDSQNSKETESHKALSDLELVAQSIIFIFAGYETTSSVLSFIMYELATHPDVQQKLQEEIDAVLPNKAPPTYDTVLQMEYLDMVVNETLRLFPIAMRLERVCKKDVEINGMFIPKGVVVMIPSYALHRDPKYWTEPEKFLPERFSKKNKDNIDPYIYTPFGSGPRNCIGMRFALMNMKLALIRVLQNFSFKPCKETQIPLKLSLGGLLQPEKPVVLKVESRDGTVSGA
CYP2C19, sequence (P33261 whole entry): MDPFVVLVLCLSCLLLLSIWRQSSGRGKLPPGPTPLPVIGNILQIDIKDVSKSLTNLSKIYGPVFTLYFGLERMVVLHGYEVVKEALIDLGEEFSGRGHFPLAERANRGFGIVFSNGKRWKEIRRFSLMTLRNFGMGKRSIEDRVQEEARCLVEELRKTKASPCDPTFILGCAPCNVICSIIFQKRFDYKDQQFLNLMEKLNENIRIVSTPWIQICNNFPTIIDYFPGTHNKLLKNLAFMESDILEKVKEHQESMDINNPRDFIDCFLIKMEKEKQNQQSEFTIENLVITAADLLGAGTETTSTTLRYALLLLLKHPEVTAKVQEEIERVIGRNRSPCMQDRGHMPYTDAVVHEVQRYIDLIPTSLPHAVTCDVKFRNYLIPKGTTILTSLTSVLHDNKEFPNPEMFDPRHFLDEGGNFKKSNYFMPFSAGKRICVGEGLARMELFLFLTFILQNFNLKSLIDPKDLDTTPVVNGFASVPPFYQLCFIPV

In the case of `COc1cc([C@H]2OC[C@H]3[C@@H]2CO[C@@H]3c2ccc3c(c2)OCO3)cc(OC)c1OC` [Aschantin], the Ki on CYP2C19 (read-out: Ki (apparent)) was determined as 5.8 µM; on CYP3A4 (read-out: Ki (apparent)), 12.6 µM. Besides, the maximal inactivation rate constant (kinact) was 0.0008 s⁻¹ at CYP2C19 (pH 7.4, probe [S]-mephenytoin (100 µM)) and 0.00103 s⁻¹ on CYP3A4 (pH 7.4, probe midazolam (2 µM)).

Usually kinact stands for the rate constant of inactivation at saturating inhibitor.

(Values after article PMC6273138, “Inhibitory Effects of Aschantin on Cytochrome P450 and Uridine 5′-diphospho-glucuronosyltransferase Enzyme Activities in Human Liver Microsomes” (Molecules, 2016).)
